Measured values published in US10259815B2, “Gabaergic ligands and their uses” (UWM Research Foundation, Inc., priority 2015, dated 2019).
“Also recorded” adds a separate entry of the source.

Assays:
[1] = tested on: Rats; test: Horizontal wire test; type: in vivo; conditions: three-assay comparison
Protocol: Horizontal wire test. Rats (n=10) were lifted by the tail and allowed to grasp a horizontally strung wire with their forepaws and released. The inability to complete this task (within 3 seconds) was recorded 20 minutes after each injection of drug.
(§1) Drugs. The following drugs were used: HZ166, KRM-II-18B, and KRM-II-81, and were dissolved in a mixture containing 20% Dimethyl sulfoxide (DMSO), 10% Emulphor-620 (Rhodia Inc.), and 70% of 0.9% saline. Flumazenil (purchased from Cayman Chemical Company, MI) was dissolved in a mixture containing 10% ethanol, 40% propylene glycol, and 50% sterile water. Midazolam (Akorn, Inc.) was dissolved in 0.9% saline. Doses were expressed as the weight of the drug in milligrams per kilogram of body weight and drugs were administered intraperitoneally.

[2] = Liver microsomal stability, rat; type: in vitro ADME; conditions: for Rat Liver microsome stability (reported in % remaining): 37° C., 4 μM compound, 30 minutes
Protocol: (§2) In vitro metabolism studies were done in mouse, rat, human, and dogs cells (TABLE 2).
(§3) In vitro liver microsomal studies were completed to measure the stability of the compounds against degradation in various species' liver microsomes.
(§4) Compound was incubated in hepatic microsomes over a 30-minute incubation period at 37° C. Incubations both with and without NADPH (2 mM) were performed in a 96-well plate format. The reaction was initiated with the addition of substrate and was terminated by protein precipitation. All incubations were performed using a final substrate concentration of 4 μM in 50 mM sodium phosphate buffer, pH 7.4. The final organic solvent content was 0.5% acetonitrile and 0.02% DMSO. The amount of enzyme present was fixed at 1.11 mg/mL protein irrespective of the species of microsomes used. Samples were analyzed by LC/MS-MS to determine the percent loss in the NAPDH incubations relative to the NADPH free incubations.

[3] = Liver microsomal stability, human; type: in vitro ADME; conditions: for Human Liver microsome stability (reported in % remaining): 37° C., 4 μM compound, 30 minutes
Protocol: as §2, §3, §4

[4] = Liver microsomal stability, mouse; type: in vitro ADME; conditions: for Mouse Liver microsome stability (reported in % remaining): 37° C., 4 μM compound, 30 minutes
Protocol: as §2, §3, §4

[5] = tested on: Sprague Dawley male rats; test: Mechanical hyperalgesia (von Frey) in CFA-induced inflammatory pain rat model; type: in vivo; conditions: for mechanical hyperalgesia in CFA-induced inflammatory pain: cumulative i.p. dosing, 3 days after CFA; for selectivity of antihyperalgesic effect in three-assay comparison: versus rate-suppressing and muscle-relaxant activity
Protocol: Raw data (paw withdrawal threshold, expressed in g of von Frey filament) was converted to a maximal possible effect value according the following equation: % MPE=[(test threshold(g)−control threshold(g)/(pre-CFA threshold−control threshold)]×100.
Complete Freund's adjuvant (CFA) contains Mycobacterium butyricum, inducing inflammation and an increase in paw thickness. 0.1 mL of CFA was injected in the right hind paw of Sprague Dawley male rats under isoflurane anaesthesia.
Mechanical hyperalgesia. Mechanical hyperalgesia was measured 3 days after CFA treatment. Rats (n=6) were placed in elevated boxes with a mesh floor. Von Frey filaments (expressed in g) were applied perpendicularly to the hindpaws, starting with the lowest filament (1.4 g) then increased until hindpaw withdrawal was observed. After each measurement, rats received the next dose of drug (every 20 min) until the maximum threshold (26 g) was observed. For the antagonist study, rats were pretreated with the benzodiazepine site antagonist flumazenil (10 min) and then received the next dose of drug (every 20 min) until the pre-CFA threshold was observed.
as §1

[6] = tested on: Rats; test: Food-maintained operant responding (rate response); type: in vivo; conditions: three-assay comparison
Protocol: Food-maintained operant responding (rate response). Rats (n=7) were placed in a chamber consisting of two (one active) levers. Rats were trained to press a lever (left) for a food pellet under a multiple-cycle procedure. […] The active period was set on a FR10 schedule and rats could receive a maximum of 5 food pellets. The cue light was terminated either after 5 minutes or once 5 food pellets were delivered. After each active period (every 20 minutes), rats received the next dose of drug for a duration of 2 hours. Data (rate per minute) was collected using Graphic State 3.03 software and interface (Coulbourn Instruments Inc.)
as §1

[7] = Liver microsomal stability, dog; type: in vitro ADME; conditions: for Dog Liver microsome stability (reported in % remaining): 37° C., 4 μM compound, 30 minutes
Protocol: as §2, §3, §4

| Compound | muscle-relaxant activity, doses relative to antihyperalgesic doses [1] | Rat Liver microsome stability (reported in % remaining) [2] | Human Liver microsome stability (reported in % remaining) [3] | Mouse Liver microsome stability (reported in % remaining) [4] | mechanical hyperalgesia in CFA-induced inflammatory pain [5] | selectivity of antihyperalgesic effect in three-assay comparison [5] | rate-suppressing activity, doses relative to antihyperalgesic doses [6] | Dog Liver microsome stability (reported in % remaining) [7] | Rat % Metabolized ([2]; in vitro metabolism, rat) | Human % Metabolized ([3]; in vitro metabolism, human) | Mouse % Metabolized ([4]; in vitro metabolism, mouse) | Dog % Metabolized ([7]; in vitro metabolism, dog) |
| --- | --- | --- | --- | --- | --- | --- | --- | --- | --- | --- | --- | --- |
| C#Cc1ccc2c(c1)C(c1ccccc1F)=NCc1c(-c3cnco3)ncn1-2 [KRM-II-18B, 5-(8-Ethynyl-6-(2-fluorophenyl)-4H-benzo[f]imidazo[1,5-a][1,4]diazepin-3-yl)oxazole] | much larger doses | 68 % remaining | 78 % remaining | 79 % remaining | much more active against hyperalgesia; also recorded: dose-dependently attenuated mechanical hyperalgesia | selectively produce antihyperalgesic effect | much larger doses | 87 % remaining | – | – | – | – |
| C#Cc1ccc2c(c1)C(c1ccccn1)=NCc1c(-c3cnco3)ncn1-2 [KRM-II-81, 5-(8-Ethynyl-6-(pyridin-2-yl)-4H-benzo[f]imidazo[1,5-a][1,4]diazepin-3-yl)oxazole] | much larger doses | 90 % remaining | 91 % remaining | 90 % remaining | much more active against hyperalgesia; also recorded: dose-dependently attenuated mechanical hyperalgesia | selectively produce antihyperalgesic effect | much larger doses | 94 % remaining | 9.6% | 8.6% | 10.1% | 5.9% |
